Laboratory results: ChEMBL document CHEMBL1123809, “Amplification of bleomycin-mediated degradation of DNA” (J Med Chem, 1987)

Tested on: Nucleic Acid
Test: Activity against DNA binding in calf thymus was determined
Assay type: nucleic-acid assay
Conditions: Bos taurus

SMILES	K
CN(C)CCCN1C(=O)c2ccc3c4c(ccc(c24)C1=O)C(=O)N(CCCN(C)C)C3=O	> 1e+06 M⁻¹
CN(C)CCSc1nccc(-c2ccc(-c3ccnc(SCCN(C)C)n3)s2)n1	1.3e+07 M⁻¹
CC[n+]1c(-c2ccccc2)c2cc(N)ccc2c2ccc(N)cc21	900000 M⁻¹
CN(C)CCNc1nccc(-c2cccs2)n1	4400 M⁻¹
CN(C)CCSc1nccc(-c2cccs2)n1	18700 M⁻¹
